Assay results published in PubChem BioAssay AID179 (DTP/NCI, 2004).
Where “and” joins values, the source holds several entries; their conditions need not be identical. Equal values may be shown once. Calls of active or inactive are those of the source.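 The calls were made as follows: active = compounds giving half or more protection of infected cells from virus-caused growth loss, again on retest; inactive = the rest.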

Test system: CEM cells HIV-1 protection, formazan growth assay
Experiment: NCI AIDS Antiviral Assay
Conditions: for IC50: measured here: growth of uninfected CEM cells
How it was run: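 Human CEM cells, uninfected and HIV-1-infected, received five drug concentrations, and growth was read by soluble formazan assay. Compounds giving at least 50% protection were retested; reproducible 100% protection defined confirmed active.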

Structure (SMILES) | EC50 [µM] | IC50 | outcome
CCN=c1cc2oc3cc(NCC)c(C)cc3c(-c3ccccc3C(=O)OCC)c-2cc1C | > 200 | 0.0631 µM and 0.12 µM | –
S=C1SC2(CCCC2)NC2=C1CCC2 | > 126 | > 126 µM | –
COc1cc2c(cc1OC)C13CC[N+]4(C)CC5=CCOC6CC(=O)N2C1C6C5CC34[O-] (stereo not given) | – | – | inactive
COc1cc(O)c2cc1Oc1ccc(cc1)CC1c3cc(c(OC)cc3CCN1C)Oc1c(OC)c(OC)c(OC)c3c1[C@H](C2)N(C)CC3 (stereo not given in full) | – | – | inactive
COc1ccc(/C=C2\CCOC2=O)cc1OC | > 776 | 282 µM | –
COC(=O)[C@H](Cc1ccccc1)NP(=O)(O)OCC1OC(n2cc(C)c(=O)[nH]c2=O)CC1N=[N+]=[N-] (stereo not given in full) | 0.0251 | 10 µM | –
N#C/C(=C(/C#N)c1ccccc1)c1ccccc1 | > 200 | > 200 µM | –
CSCS(=O)C[C@H](CO)NC(=O)/C=C/c1c(C)[nH]c(=O)[nH]c1=O (stereo not given in full) | > 692 | 0.447 µM | –
Cc1cc(=O)[nH]c(NN2C(Cl)C(=O)C2c2ccc(O)cc2)n1 (stereo not given) | > 42.7 | 6.76 µM | –
CN(C)CCONC(=O)C12CC3CC(CC(C3)C1)C2 | – | – | inactive
Cc1nc(Nc2ccc(Cl)cc2Cl)sc1C(=O)Nc1ccccc1 | > 200 | 117 µM | –
CCOC(=O)C1=C(Nc2cccc(OC)c2)OCC1=O | > 200 | > 200 µM | –
C=CCCCC1CCCNC1=S (stereo not given) | > 275 | > 275 µM | –
COCn1c2ccc(OC(C)=O)cc2c2c(=O)oc(N(C)C)nc21 | > 200 | > 200 µM | –
CCC(C)[N-]c1cccc[n+]1[O-].CCC(C)[N-]c1cccc[n+]1[O-].[Cu+2] (stereo not given) | > 200 | 83.2 µM | –
COc1ccc(S(=O)(=O)NCCSSCCNS(=O)(=O)c2ccc(OC)cc2)cc1 | > 200 | 26.9 µM | –
Nc1cc2cccc[n+]2c2cccc(Cl)c12 | > 200 | 4.47 µM | –
COc1ccccc1OCC(O)CO (stereo not given) | – | – | inactive

Structure (SMILES) | EC50 [µM] | IC50 | outcome
COc1cc(-c2ccc(N=Nc3cc(S(=O)(=O)O)c4ccccc4c3N)c(OC)c2)ccc1N=Nc1cc(S(=O)(=O)O)c2ccccc2c1N | 13.2 | 155 µM | –
COc1ccc2c(c1)Oc1cc(O)ccc1[C@H]2c1ccccc1C(=O)NC(C)c1ccccc1 (stereo not given in full) | > 15.8 | 13.8 µM | –
Cc1cc(C)n(-c2nsc3ccccc23)n1 | > 112 | > 112 µM | –
COc1cc(C2SCC(=O)N2NC(=O)c2ccc(NC(C)=O)cc2)cc(OC)c1OC (stereo not given) | > 58.9 | > 58.9 µM | –
Oc1ccc(O)c(Sc2nnc(CCCCCCCCc3nnc(Sc4cc(O)ccc4O)o3)o2)c1 | – | – | inactive
CCOC(=O)c1ccc(/C=C/c2cccn2C(=O)OC(C)(C)C)[nH]1 | – | – | inactive
CC(C)(C)NC(NC(C)(C)C)=C(C(Cl)=C(Cl)Cl)[N+](=O)[O-] | > 200 | > 200 µM | –
COc1cc2c(cc1OC)-c1cc3cc(OC)c(OC)cc3n1CC2 | > 4.27 | 2.4 µM | –
CC1(C)NC(=O)C2(CC(O)C(O)C(OC(=O)c3ccccc3)C2)O1 (stereo not given) | > 263 | > 263 µM | –
CC1=CC(C)C(=O)N(CCN2CCOCC2)C(C)=C1 (stereo not given) | > 955 | > 955 µM | –
COc1ccc(/C=N/n2c(=O)[nH]c3ccccc3c2=O)cc1 | > 200 | > 200 µM | –
C[C@@H]1OC2(O)[C@@H]3CCCN3C(=O)N(Cc3ccccc3)N2C1=O (stereo not given in full) | > 200 | > 200 µM | –
FC(F)(F)c1nc(-c2ccccc2)oc1Sc1nnc(Sc2oc(-c3ccccc3)nc2C(F)(F)F)s1 | – | – | inactive
CN1C(=O)C(C(C)(C)C2SC(=S)N(C)C2=O)SC1=S (stereo not given) | > 200 | > 200 µM | –
O=S1OCC2(CO1)COS(=O)OC2 (stereo not given) | > 200 | 91.2 µM | –
CCCCCC(/C=C/[C@@H]1[C@H]2CC(=O)O[C@H]2C[C@H]1N1CCOCC1)OC1CCCO1 (stereo not given in full) | > 316 | > 316 µM | –
O=C1C(C(O)(C(F)(F)Cl)C(F)(F)Cl)CCCC1C(O)(C(F)(F)Cl)C(F)(F)Cl (stereo not given) | > 200 | 10 µM | –
OC(c1ccccc1)(c1cccnc1)C(O)(c1ccccc1)c1cccnc1 (stereo not given) | > 200 | > 200 µM | –
